Holding throughout (experiment): NCI tumour cell line growth inhibition, 48 h
In test [1] the test system is EKVX.
For test [2], the system named is UO-31.
The subject of test [3] is HCC 2998.
Test [4] concerns ACHN.
Test [5] has as its system NCI-H23.
Test [6] relates to Hs-578T.
In test [7] the test system is HOP-92.
For test [8], the system named is OVCAR-3.
Test [9] deals with SNB-75.
Test [10] deals with HL-60.
In test [11] the test system is RPMI-8226.
Test [12] relates to MCF7.
Test [13] deals with SNB-19.
Test [14] deals with RXF 393.
In test [15] the test system is CCRF-CEM.
The subject of test [16] is SF-295.
The test system of test [17] is LOX IMVI.
Test [18] relates to NCI-H226.
Test [19] deals with K562.
The test system of test [20] is MOLT-4.

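Cells were grown in 96-well plates and exposed to each compound for 48 hours at five concentrations; endpoints were interpolated linearly between bracketing concentrations, or set to the highest concentration if not reached. GI50 = concentration required for 50% inhibition of growth.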 Active and inactive are the calls of the source. No stated cut-off is given here; in the data, active = GI50 up to about 1.1 µM and inactive = higher. A value given as a limit tells only on which side of the number the result lay.

Consider `O=C(/C=C/c1ccco1)c1cccc(C(=O)/C=C/c2ccco2)n1`, for which the GI50 is 57.3 µM (inactive) in [1]; 6.43 µM (inactive) in test [2]; > 75.9 µM (inactive) in test [3]; 21.9 µM (inactive) in [4]; 11.7 µM (inactive) in test [5]; 4.4 µM (inactive) in test [6]. Also, the GI50 in test [7] is 32.9 µM (inactive); in test [8], 19.4 µM (inactive); in test [9], 45.5 µM (inactive); in test [10], 0.0409 µM (active); in [11] it was 1.87 µM (inactive); in [12], 0.662 µM (active). The GI50 is 8.41 µM (inactive) in test [13]; 25.5 µM (inactive) in test [14]; 0.71 µM (active) in [15]; 40.1 µM (inactive) in test [16]; 1.78 µM (inactive) in test [17]; > 100 µM (inactive) in test [18]. The GI50 was 2.91 µM (inactive) in [19] and 2.19 µM (inactive) in test [20].
As for `O=C1Nc2ccccc2/C1=C/c1ccccc1`, the GI50 was 13.8 µM (inactive) in test [1]; 12.6 µM (inactive) in test [2]; 15.8 µM (inactive) in test [3]; 30.4 µM (inactive) in test [4]; 18.1 µM (inactive) in [5]; 24.1 µM (inactive) in test [6]. For the same compound, the GI50 was 11 µM (inactive) in [7]; 16.7 µM (inactive) in [8]; 12.9 µM (inactive) in test [9]; 14.6 µM (inactive) in test [10]; 18.2 µM (inactive) in [11]; 3.36 µM (inactive) in test [12]. Also, the GI50 in test [13] is 14.5 µM (inactive); in [14], 9.27 µM (inactive); in test [15], 17.8 µM (inactive); in test [16], 17.5 µM (inactive); in [17] it was 13.2 µM (inactive); in test [18], 17.1 µM (inactive). Also, the figures for the GI50 in test [19] and in test [20] were 27.7 µM (inactive) and 15.6 µM (inactive), respectively.
`COc1ccc2[nH]c(S(=O)(=O)N3CC(CCl)c4ccc(N)cc43)cc2c1` (stereo not drawn): the GI50 was 1.85 µM (inactive) in test [1]; 0.0403 µM (active) in [2]; 2.94 µM (inactive) in [3]; 8.91 µM (inactive) in test [4]; 0.0953 µM (active) in [6]; 13.7 µM (inactive) in [7]. In addition, the GI50 was 0.022 µM (active) in test [8]; 0.0718 µM (active) in test [9]; < 0.01 µM (active) in test [10]; 0.103 µM (active) in test [11]; 0.0184 µM (active) in [12]; 8.22 µM (inactive) in test [13]. In addition, the GI50 is 0.675 µM (active) in [14]; 0.362 µM (active) in [15]; 0.0775 µM (active) in test [16]; < 0.0229 µM (active) in test [17]; 0.252 µM (active) in test [18]; < 0.01 µM (active) in test [19]. Moreover, the GI50 in test [20] was 0.0826 µM (active).
Consider `CN(C)c1ccc(/C=C(\NC(=O)c2ccccc2)C(=O)NC(CC(=O)O)C(=O)O)cc1` (stereo not drawn), for which the GI50 was > 100 µM (inactive) in [1]; > 100 µM (inactive) in test [2]; > 100 µM (inactive) in test [3]; > 100 µM (inactive) in [4]; > 100 µM (inactive) in [5]; 49.7 µM (inactive) in [6]. The GI50 was > 100 µM (inactive) in test [7]; 52.7 µM (inactive) in [8]; 1.99 µM (inactive) in test [9]; > 100 µM (inactive) in test [10]; > 100 µM (inactive) in test [11]; > 100 µM (inactive) in test [12]. Besides, the GI50 in [13] is > 100 µM (inactive); in test [14], > 100 µM (inactive); in test [15], > 100 µM (inactive); in [16], > 100 µM (inactive); in [17] it was 86.3 µM (inactive); in test [18], > 100 µM (inactive). The GI50 in test [19] was 18.2 µM (inactive); in [20], > 100 µM (inactive).
As for `N/C(S)=N/N=C/c1ccc(N)cn1`, the GI50 in test [1] is > 10 µM (inactive); in [2], 2.28 µM (inactive); in [3], 3.65 µM (inactive); in test [4] it was 1.29 µM (inactive); in test [5] it was 2.13 µM (inactive); in test [6], > 8.36 µM (inactive). Moreover, the GI50 in test [7] was 3.44 µM (inactive); in [8], 5.01 µM (inactive); in [9], 2.4 µM (inactive); in test [10], 1.91 µM (inactive); in test [11], 3.52 µM (inactive); in test [12], 3.01 µM (inactive). The GI50 in test [13] is 9.89 µM (inactive); in test [14], 3.42 µM (inactive); in test [15] it was 1.93 µM (inactive); in test [16], 3.52 µM (inactive); in test [17], 3.62 µM (inactive); in [18], 4.24 µM (inactive). In addition, the GI50 is 3.1 µM (inactive) in [19] and 1.95 µM (inactive) in [20].
Take `CC(=O)OCC(Br)C1(C)CCC(C(C)(C)Br)O1` (stereo not drawn): the GI50 in test [1] was > 100 µM (inactive); in [2] it was 39.6 µM (inactive); in test [3], 98.6 µM (inactive); in test [4], 94.8 µM (inactive); in test [5], 65.5 µM (inactive); in test [6] it was 17.9 µM (inactive). For the same compound, the GI50 is 20.6 µM (inactive) in [7]; 59.2 µM (inactive) in test [8]; 58.2 µM (inactive) in [9]; > 100 µM (inactive) in test [10]; > 100 µM (inactive) in test [11]; 56.4 µM (inactive) in [12]. Moreover, the GI50 in [13] is > 100 µM (inactive); in test [14], 51.1 µM (inactive); in test [15], > 100 µM (inactive); in test [16] it was > 100 µM (inactive); in test [17], 23.1 µM (inactive); in test [18], 32.8 µM (inactive). Moreover, the GI50 is > 100 µM (inactive) in [19] and 73.8 µM (inactive) in [20].
In the case of `COCn1cc(C2=C(C)C(=O)C(C)=C(C)C2=O)cn1`, the GI50 was 18.2 µM (inactive) in [1]; 57.5 µM (inactive) in test [2]; > 100 µM (inactive) in test [3]; 85.9 µM (inactive) in [4]; > 100 µM (inactive) in [5]; > 100 µM (inactive) in test [6]. Also, the GI50 in test [7] was 12.7 µM (inactive); in [8], 19.5 µM (inactive); in test [9] it was 11.4 µM (inactive); in test [10], 4.6 µM (inactive); in test [11] it was 27.9 µM (inactive); in test [12], > 100 µM (inactive). Moreover, the GI50 in test [13] is > 100 µM (inactive); in test [14] it was > 100 µM (inactive); in test [15], 21.9 µM (inactive); in test [16] it was > 100 µM (inactive); in test [17], > 10 µM (inactive); in test [18], > 100 µM (inactive). Besides, the GI50 in test [19] was 18.9 µM (inactive); in test [20], 14.9 µM (inactive).
For `CC[N+]1(C)CCC(O)(/C=C/c2ccccc2)C(C(=O)/C=C/c2ccccc2)C1` (stereo not drawn), the GI50 in test [1] is 22.5 µM (inactive); in test [2] it was 15.6 µM (inactive); in test [3], 16.7 µM (inactive); in [4], 11.1 µM (inactive); in [5] it was 15.2 µM (inactive); in [6], 28.4 µM (inactive). The GI50 in [7] was 9.46 µM (inactive); in [8], 9.04 µM (inactive); in test [9] it was 14.7 µM (inactive); in test [10], 2.31 µM (inactive); in test [11] it was 0.706 µM (active); in test [12] it was 3.05 µM (inactive). For the same compound, the GI50 in test [13] was 15.3 µM (inactive); in test [14], 7.62 µM (inactive); in test [15] it was 1.94 µM (inactive); in [16], 16.7 µM (inactive); in test [17], 2.79 µM (inactive); in test [18] it was 14.7 µM (inactive). The values for the GI50 in test [19] and in test [20] were 2.7 µM (inactive) and 2.13 µM (inactive), respectively.
Consider `C[C@H]1CC[C@H](NC(=O)N(CCCl)N=O)CC1`, for which the GI50 was 78.3 µM (inactive) in [1]; 49.9 µM (inactive) in test [2]; 44 µM (inactive) in [3]; 49.4 µM (inactive) in test [4]; 54.5 µM (inactive) in [5]; 57.4 µM (inactive) in test [6]. Moreover, the GI50 in [7] was 24.4 µM (inactive); in [8], 42.1 µM (inactive); in test [9], 31.1 µM (inactive); in [10] it was 14.4 µM (inactive); in test [11], 31.6 µM (inactive); in test [12], 50.4 µM (inactive). Besides, the GI50 is 38.7 µM (inactive) in test [13]; 36 µM (inactive) in test [14]; 13.2 µM (inactive) in [15]; 13.4 µM (inactive) in test [16]; 13 µM (inactive) in test [17]; 59 µM (inactive) in test [18]. For the same compound, the results for the GI50 in test [19] and in test [20] were 34.3 µM (inactive) and 18.3 µM (inactive), respectively.
For the compound `COc1ccc(OC)c(CC2CCc3nc(N)nc(N)c3C2)c1` (stereo not drawn), the GI50 in test [1] was 15.6 µM (inactive); in test [2] it was 4.85 µM (inactive); in test [3] it was 0.69 µM (active); in test [4] it was < 0.0284 µM (active); in [5] it was 0.251 µM (active); in test [6], 23.7 µM (inactive). Also, the GI50 in test [7] is 21.9 µM (inactive); in test [8] it was 15 µM (inactive); in [9], 0.828 µM (active); in test [10] it was 3.58 µM (inactive); in test [11], 18.2 µM (inactive); in test [12], 0.509 µM (active). The GI50 in [13] is 1.21 µM (inactive); in test [14], < 0.01 µM (active); in test [15], 0.515 µM (active); in test [17] it was 0.0561 µM (active); in [18], 20.9 µM (inactive); in test [19], > 100 µM (inactive). Moreover, the GI50 in test [20] is 1.52 µM (inactive).

The values above are taken from ChEMBL document CHEMBL1201862, “PubChem BioAssay data set” (2004).
